According to patent US4902791A, “Nitrosourea derivatives, process for their preparation and medicaments containing them” (Sanofi S.A., priority 1983, dated 1990):
Converted amounts (≈) assume the structure as drawn.

Legend:
L 1210 cell = test: 20% cytotoxic index, trypan blue exclusion, 24 h (TEST N° 1); format: cell-based, mouse; parameters: key to DOSE CORRESPONDING TO A 20% CYTOTOXIC INDEX: N.S.: not significant; conditions: L1210 cells, 24 hours at 37° C.; for IC20: Mus musculus, read-out: DOSE COR[…] A 20% CYTOTOXIC INDEX, read-out: DOSE CORRESPONDING TO A 20% CYTOTOXIC INDEX
Procedure: (§1) The test used is that of W. J. Durkin et al. Cancer Research 1979, 39, 402-407, modified.
(§2) All the nitrosoureas were dissolved in 70% ethanol in the proportion of 10 mg/ml.
1--Determination of the 20% cytotoxic index
100 μl of an L 1210 cell suspension (10^6 cells per ml) in R P M I 1640 culture medium supplemented with 10% of fetal calf serum and 40 μg/ml of gentamycin, containint various doses of the products to be tested (0 to 100 μg/ml) were incubated 24 hours at 37° C. At the end of this time, the cell viability is determined by the trypan blue exclusion test. The cytotoxic index is defined by the formula: [formula]
The amount of ethanol is the same in the cultures containing the products to be tested and in the control cultures (this amount has no effect either on growth nor on cell viability).
For each product the dose which gives a cytotoxic index of 20% is determined.

L 1210 cells = test: cytotoxic index after 1 h contact, potential "in vivo" activity (TEST N° 2); format: cell-based, mouse; parameters: key to CYTOTOXIC INDEX: N.S.: not significant; conditions: for CYTOTOXIC INDEX: 1 hour contact at dose giving 20% index, read after 48 hours; for POTENTIAL "IN VIVO" ACTION: active if cytotoxic index ≥40%
Procedure: as §1, §2
2--Determination of the potential "in vivo" activity
L 1210 cells, under conditions similar to the preceding protocol, were contacted for 1 hour with a dose of the various products tested corresponding to a cytotoxic index equal to 20%. After this time, the cells were placed in culture medium not containing nitrosoureas and incubated at 37° C. After 48 hours, the cytotoxic index was determined.

leucemia L 1210 IGR = test: "in vivo" activity on leucemia L1210 IGR, 20 mg/kg i.p. days 1, 5, 9; parameters: species or system mouse; conditions: for percentage of cured mice: surviving more than 60 days
Procedure: Female DBA2 mice were used, about 8 weeks old and weighing about 20 g from the IFFA-CREDO center (les Oncins, 69210 Arbresles)
At day "0", each mouse received intraperitoneally an inoculum of […] in a volume of 0.2 ml.
After tumoral graft, the mice were distributed at random into 21 cages of 5 animals, themselves then distributed, by drawing lots, into 6 experimental series. Within these 6 experimental series, there were constituted a control series of 6 cages and 5 experimental series of 3 cages each, and of which the mice were intended to be treated by the compounds of the invention.
(§3) The protocol was identical for the 3 tumors and the 5 compounds of the invention to be tested.
(§4) As regards the experimental series to be treated, each mouse received, at days 1, 5 and 9, intraperitoneally, a dose of 20 mg/kg of the compound to be tested, in the volume of 0.2 ml of neutralized and sterilized olive oil.
(§5) As regards the control series, each mouse received, intraperitoneally, 0.2 ml of neutralized and sterilized olive oil.
(§6) The results are expressed by the relative increase in survival (T/C×100) calculated from the average survival of the treated animals (T) and that of the control animals (C)
(§7) The mice surviving more than 60 days were considered as cured.
(§8) The figures between parentheses indicate the percentage of cured mice.

Tumor LEWIS 3LL = test: "in vivo" activity on Lewis tumor, 20 mg/kg i.p. days 1, 5, 9; parameters: species or system mouse; conditions: for percentage of cured mice: surviving more than 60 days
Procedure: Procedure was under the conditions which have just been described previously with regard to melanoma B16, by injecting the tumor cells, in the proportion of 2×10^6 per mouse, in the volume of 0.2 ml.
as §3, §4, §5, §6, §7, §8

melanoma B16 = test: "in vivo" activity on melanoma B16, 20 mg/kg i.p. days 1, 5, 9; parameters: species or system mouse; conditions: for percentage of cured mice: surviving more than 60 days
Procedure: Female C57 B 1/6 mice were used, about 8 weeks old and weighing about 20 g, from the IFFA-CREDO center.
At day "0", each mouse received intraperitoneally an inoculum of 2×10^6 tumor cells in a volume of 0.5 ml.
After tumoral graft, distribution at random was carried out as indicated above, to obtain a control series of 8 cages and 5 experimental series of 4 cages each, and of which the mice were intended to be treated by the compounds of the invention.
as §3, §4, §5, §6, §7, §8

L 1210 USA Tumor = test: "in vivo" activity on L1210 U.S.A. tumor, 5 mg/kg i.p. days 1, 5, 9; parameters: species or system mouse
Procedure: The tumor L1210 U.S.A. is more resistant than tumor L1210 IGR.
(§9) The experiments were identical to those described in preceding paragraph 4 but lower doses were used.
There were inoculated into the mice, 10^5 tumor cells of L1210 U.S.A. intraperitoneally in a volume of 0.2 ml.
At days 1, 5 and 9, the compounds of the invention under test were injected intraperitoneally, at a lower dose than that used in the experiment described at 4, that is to say in the proportion of 5 mg/kg.

L 1210 IGR TUMOR = test: "in vivo" activity on L1210 IGR tumor, 5 mg/kg i.p. days 1, 5, 9; parameters: species or system mouse
Procedure: as §9
The same protocol was carried out with the tumor L1210 IGR, by inoculating 10^5 tumor cells of L1210 IGR intraperitoneally in the volume of 0.2 ml then, at days 1, 5 and 9, there were injected intraperitoneally 5 mg/kg of each of the compounds to be tested.

[1] = MONTERO et al; cited from earlier work
L 1210 leucemia = conditions: IMBACH et al; cited from earlier work
leucemia L1210 = test: effective "in vivo" activity in the mouse, leucemia L1210, compound 2, i.p. days 1, 5, 9
Procedure: The experimentation which is reported below used the compound 2 prepared according to the above example 6 (Ref. IC 81 1183).
The mice (female, average weight 20 g) used were F1 /DBA2 /C57 /B1 (Animal selection and breeding center of the Laboratories of the CNRS, Orleans, La Source).
The mice distributed in cages by drawing lots were inoculated on day "0" with 10^5 leucemia L1210 cells.
The animals were treated with the compound IC 81 1183 intraperitoneally on days 1, 5 and 9.
The suspensions were prepared just before the injection: product 2+neutralized and sterilized olive oil.
The mortality of the animals was observed regularly, the relative increase in the survival (T/C×100) was calculated from the average survival of the treated animals (T) and that of the control animals (C).

[2] = compared with literature curves

| Compound | IC20 (L 1210 cell) | CYTOTOXIC INDEX (L 1210 cells) | POTENTIAL "IN VIVO" ACTION (L 1210 cells) | relative increase in survival (T/C×100) (leucemia L 1210 IGR) | percentage of cured mice (leucemia L 1210 IGR) | relative increase in survival (T/C×100) (Tumor LEWIS 3LL) | percentage of cured mice (Tumor LEWIS 3LL) | relative increase in survival (T/C×100) (melanoma B16) | percentage of cured mice (melanoma B16) | Average survival ±2 σm (L 1210 USA Tumor) | Median survival (L 1210 USA Tumor) | T/C × 100 (average survival) (L 1210 USA Tumor) | T/C × 100 (median survival) (L 1210 USA Tumor) | Average survival ±2 σm (L 1210 IGR TUMOR) | Median survival (L 1210 IGR TUMOR) | T/C × 100 (average survival) (L 1210 IGR TUMOR) | T/C × 100 (median survival) (L 1210 IGR TUMOR) | oncostatic action on L 1210 leucemia (L 1210 leucemia) | other results |
| --- | --- | --- | --- | --- | --- | --- | --- | --- | --- | --- | --- | --- | --- | --- | --- | --- | --- | --- | --- |
| CO[C@@H]1C[C@@H](NC(=O)N(CCCl)N=O)[C@H](OC)[C@@H](C)O1 [IC 1373, Methyl 3-[3-(2-chloroethyl) 3-nitrosoureido] 2,3,6-tridesoxy 4-O-methyl alpha-D-arabinohexopyranoside] | 80 µg/mL (≈ 258 µM) | 68% | + (if the cytotoxic index was equal to or greater than 40%, the product concerned would be active "in vivo" in the mouse) | .infin. (The sign 00 indicates that 50% at least of the mice were cured) | 100% | 316 | 30% | 165 | 0% | 10,6 ± 0,44 | 10,6 | 123 | 122 | 12,9 ± 0,55 | 13,1 | 142 | 145 |  |  |
| O=NN(CCCl)C(=O)N[C@@H]1O[C@H](CO)[C@@H](O)[C@H](O)[C@H]1O [1-[3-(2-chloro-ethyl) 3-nitroso-ureido]-1-beta-D-glucopyranose] |  |  |  |  |  |  |  |  |  |  |  |  |  |  |  |  |  |  | toxicity on the bone marrow [1]: lower toxicity on the bone marrow |
| CC(=O)O[C@H]1[C@H](OC(C)=O)COC(NC(=O)N(CCCl)N=O)[C@@H]1OC(C)=O (some centres unmarked) [XPCNU, 1-(2-chloro-ethyl) 3-(xylopyranosyl 2',3',4'-triacetate)-nitrosourea] |  |  |  |  |  |  |  |  |  |  |  |  |  |  |  |  |  | oncostatic action |  |
| CO[C@@H]1C[C@@H](NC(=O)N(CCCl)N=O)[C@H](O)[C@@H](C)O1 [IC 1183, Methyl 3-[3-(2-chloroethyl) 3-nitrosoureido] 2,3,6-tridesoxy α-D-arabinohexopyranoside] | 50 µg/mL (≈ 169 µM) | 77% | + (if the cytotoxic index was equal to or greater than 40%, the product concerned would be active "in vivo" in the mouse) | .infin. (The sign 00 indicates that 50% at least of the mice were cured) | 100% | .infin. (The sign 00 indicates that 50% at least of the mice were cured) | 75% | 234 | 5% | 13,5 ± 0,91 | 14,0 | 157 | 161 | 18,7 ± 1,30 | 19 | 207 | 210 |  | T/C (×100) (leucemia L1210; 1.25 mg/kg i.p. days 1, 5, 9): 118; T/C (×100) (leucemia L1210; 2.50 mg/kg i.p. days 1, 5, 9): 158; T/C (×100) (leucemia L1210; 5 mg/kg i.p. days 1, 5, 9): 170; T/C (×100) (leucemia L1210; 10 mg/kg i.p. days 1, 5, 9): 220; T/C (×100) (leucemia L1210; 20 mg/kg i.p. days 1, 5, 9): 00 (T/C=00: for definition: more than 50% of the treated animals were finally cured); T/C (×100) (leucemia L1210; 40 mg/kg i.p. days 1, 5, 9): 00 (T/C=00: for definition: more than 50% of the treated animals were finally cured); T/C (×100) (leucemia L1210; 50 mg/kg i.p. days 1, 5, 9): 100; T/C above 40 mg/kg (leucemia L1210; after 40 mg/kg, rise in toxicity): sudden drop of the T/C; curve of efficiency vs CCNU and Me CCNU (leucemia L1210; [2]): very distinctly higher than those obtained by CCNU and Me CCNU; curve of efficiency vs RFCNU and RPCNU (leucemia L1210; [2]): as good as that obtained with RFCNU and RPCNU; animals cured finally (leucemia L1210; doses of 20 and 40 mg/kg): all the animals at doses of 20 and 40 mg/kg were cured finally; Toxicity (leucemia L1210; ≥60 mg/kg i.p. days 1, 5, 9): Toxicity |
| CC(=O)O[C@@H]1[C@H](OC(C)=O)COC(NC(=O)N(CCCl)N=O)[C@@H]1OC(C)=O (some centres unmarked) [RPCNU, 1-(2-chloro-ethyl) 3-(ribopyranosyl-2',3',4'-triacetate)-nitrosourea] |  |  |  |  |  |  |  |  |  |  |  |  |  |  |  |  |  | oncostatic action |  |
| CO[C@@H]1C[C@@H](O)[C@H](O)[C@@H](CNC(=O)N(CCCl)N=O)O1 [IC 1350] |  | N.S. |  | 362 | 20% | 325 | 40% | 225 | 5% | 10,5 ± 0,74 | 10,25 | 126 | 118 | 14,3 ± 1,23 | 14,25 | 158 | 157 |  | DOSE CORRESPONDING TO A 20% CYTOTOXIC INDEX (L 1210 cell): N.S. |
| CC(=O)OC[C@H]1OC(OC(C)=O)[C@H](NC(=O)N(CCCl)N=O)[C@@H](OC(C)=O)[C@@H]1OC(C)=O (some centres unmarked) [GCNU, 3-(2-chloro-1-ethyl-2'-desoxy-glucopyranosyl-14,3',4",6'-tetracetate)nitrosourea] |  |  |  |  |  |  |  |  |  |  |  |  |  |  |  |  |  | oncostatic action |  |
| CO[C@@H]1C[C@@H](N(C)C(=O)N(CCCl)N=O)[C@H](O)[C@@H](C)O1 [IC 1375, Methyl 3-[3-(2-chloroethyl) 1-methyl 3-nitrosoureido] 2,3,6-tridesoxy α-D-arabinohexopyranoside] | 60 µg/mL (≈ 194 µM) | 69% | + (if the cytotoxic index was equal to or greater than 40%, the product concerned would be active "in vivo" in the mouse) |  |  |  |  |  |  |  |  |  |  |  |  |  |  |  |  |
| CC(=O)OC[C@H]1O[C@@H](NC(=O)N(CCCl)N=O)[C@H](OC(C)=O)[C@@H](OC(C)=O)[C@@H]1OC(C)=O [2,3,4,6-tetra-O-acetyl 1-[3-(2-chlor-ethyl)nitroso-3-ureido]-1-desoxy-beta-D-glucopyranose] |  |  |  |  |  |  |  |  |  |  |  |  |  |  |  |  |  |  | toxicity on the bone marrow [1]: lower toxicity on the bone marrow |
| CC1(C)O[C@@H]2[C@@H](COC(=O)c3ccc([N+](=O)[O-])cc3)OC(NC(=O)N(CCCl)N=O)[C@@H]2O1 (some centres unmarked) [RFCNU, 1-(2-chloro-ethyl)3-(ribofuranosyl-2',3'-isopropylidene-5-paranitro benzoate)-nitrosourea] |  |  |  |  |  |  |  |  |  |  |  |  |  |  |  |  |  | oncostatic action |  |
